The source of these data is US9309231B2, “Bridged ring compounds as hepatitis C virus (HCV) inhibitors and pharmaceutical applications thereof” (SUNSHINE LAKE PHARMA CO., LTD, priority 2012, dated 2016).

In one experiment the test system is HCV GT1b replicon cells. The experiment in a line: HCV replicon assay, GT1b replicon cells. Type of experiment: cell-based. To be noted: Hepatitis C virus, 72 hours incubation, luciferase reporter or NEO gene qPCR readout, read-out: EC50 against HCV 1b genotype. On the procedure: (§1) An HCV Replicon assay was utilized in the present disclosure, and was prepared, developed and validated as described in Science, 1999, 285 (5424), 110-3 and J. Virol., 2003, 77 (5), 3007-19.
(§2) HCV GT1a, GT1b and GT2a replicon cells were used to test the currently described compound series as well as wild-type cells HCV 1b and resistant cells Y^93H, L31F, P32L and I302V. GT1a and CT1b are HCV Replicon System which is transfected HCV 1a, 1b genotype respectively.
(§3) 1. Testing EC50 of the Compounds by Luciferase Assay
(§4) The GT1b cells and GT1a cells were seeded into 96-well plates (8,000 cells in 125 μl/well) respectively; each compound was diluted to desired concentration using 5-fold serial dilutions protocol, 10 dose in duplicate, and added to wells with POD™ 810 Plate Assembler. The final concentration of DMSO was 0.5%; the plates were incubated in a CO2 incubator for 72 hours; after that, 40 μl of Luciferase assay substrate (Promega Bright-Glo) was added to each well, and detected by a chemiluminescence detection system (Topcount Microplate Scintillation and Luminescence Counter) 5 minutes later; data analysis.
(§5) 2. Testing EC50 of the Compounds by Detecting Antibiotic G418 Resistance Gene NEO Gene
(§6) The GT1b cells and GT1a cells were seeded into 96-well plates (8,000 cells in 125 μl/well) respectively; each compound was diluted to desired concentration using 5-fold serial dilutions protocol, 10 dose in duplicate, and added to wells with POD™ 810 Plate Assembler., the final concentration of DMSO was 0.5%; the cells were incubated in a CO2 incubator for 72 hours; quantitative PCR. • Sample preparation: the supernatant was removed, 100 μl of FCW buffer solution was added to each well, washed carefully and discarded the solution; 50 μl of lysate FCP was added to each well, the cells was lysed as PCR template and diluted with DEPC water. • Quantitative PCR: preparation of reaction mixture according to PCR system; the reaction mixture was dispensed into a 384-well PCR reaction plate (specially for quantitative); and a standard template which was diluted in proportion was distributed into the plate; and the sample template was distributed into the plate; then the 384-well plate was sealed with closure plate membrane; the […] PCR machine was operated by procedures; data analysis.
(§7) 3. Data Processing: The EC50 Values of Compounds were Analyzed by GraphPad Prism Software.
(In general: A replicon is a self-replicating genome or part of one, used to study replication in cells.)

The next experiment has as its system HCV GT1a replicon cells. In words: HCV replicon assay, GT1a replicon cells. To be noted: Hepatitis C virus, 72 hours incubation, luciferase reporter or NEO gene qPCR readout, read-out: EC50 against HCV 1a genotype. Type of experiment: cell-based. The procedure: as §1, §2, §3, §4, §5, §6, §7

For orientation: EC50 means the concentration at which the effect is half-maximal. For `COC(=O)N[C@H](C(=O)N1CCC[C@H]1c1ncc(-c2ccc(-c3ccc(-c4ccc5nc([C@@H]6CCCN6C(=O)[C@@H](NC(=O)OC)C(C)C)[nH]c5c4)c4c3C3CCC4C3)s2)[nH]1)C(C)C` (stereo partly drawn) [Example 38], the EC50 in the experiment on HCV GT1b replicon cells stood at 0.017 nM; with HCV GT1a replicon cells it was 0.064 nM.
The like results for `COC(=O)N[C@H](C(=O)N1CCC[C@H]1c1ncc(-c2ccc(-c3ccc(-c4cnc([C@@H]5CCCN5C(=O)[C@@H](NC(=O)OC)C(C)C)[nH]4)c4c3C3CCC4C3)s2)[nH]1)C(C)C` (stereo partly drawn) [Example 40] were, in that order, 0.012 nM and 0.083 nM.
The like results for `COC(=O)N[C@H](C(=O)N1CCC[C@H]1c1ncc(-c2ccc(-c3ccc(-c4ccc5nc([C@@H]6CCCN6C(=O)[C@@H](NC(=O)OC)C(C)C)[nH]c5c4)c4c3C3CCC4C3)nc2)[nH]1)C(C)C` (stereo partly drawn) [Example 41] were, in that order, 0.01 nM and 0.067 nM.
Consider `COC(=O)N[C@H](C(=O)N1CCC[C@H]1C(=O)Nc1ccc(-c2ccc(-c3ccc(NC(=O)[C@@H]4CCCN4C(=O)[C@@H](NC(=O)OC)C(C)C)cc3)c3c2C2CCC3C2)cc1)C(C)C` [Example 43], for which the EC50 turned out to be 0.073 nM with HCV GT1b replicon cells and 1.13 nM with HCV GT1a replicon cells.
In the case of `COC(=O)N[C@H](C(=O)N1C2CC2C[C@H]1c1ncc(-c2ccc(-c3ccc(-c4ccc(-c5cnc([C@@H]6NC7CC7N6C(=O)[C@@H](NC(=O)OC)C(C)C)[nH]5)cc4)c4c3C3CCC4C3)cc2)[nH]1)C(C)C` (stereo partly drawn) [Example 45], the EC50 was found to be 0.113 nM in the experiment with HCV GT1b replicon cells and 3.07 nM with HCV GT1a replicon cells.
The like results for `COC(=O)N[C@H](C(=O)N1CCS[C@H]1c1ncc(-c2ccc(-c3ccc(-c4cnc([C@@H]5SCCN5C(=O)[C@@H](NC(=O)OC)C(C)C)[nH]4)c4c3C3CCC4C3)cc2)[nH]1)C(C)C` (stereo partly drawn) [Example 46] were, in that order, 0.035 nM and 0.439 nM.
Consider `COC(=O)N[C@H](C(=O)N1CCC[C@H]1c1ncc(-c2ccc(-c3ccc(-c4ccc5nc([C@@H]6CCCN6C(=O)[C@@H](NC(=O)OC)C(C)C)[nH]c5c4)cc3)c3c2C2CCC3C2)[nH]1)C(C)C` (stereo partly drawn) [Example 47], for which the concentration giving a half-maximal response (EC50) amounted to 0.013 nM in the experiment on HCV GT1b replicon cells and 0.053 nM in the experiment with HCV GT1a replicon cells.
As for `COC(=O)N[C@H](C(=O)N1CCC[C@H]1c1ncc(-c2ccc3cc(-c4ccc(-c5cnc([C@@H]6CCCN6C(=O)[C@@H](NC(=O)OC)C(C)C)[nH]5)c5c4C4CCC5C4)ccc3c2)[nH]1)C(C)C` (stereo partly drawn) [Example 48], the results for the EC50 with HCV GT1b replicon cells and in the experiment on HCV GT1a replicon cells were 0.029 nM and 0.043 nM, respectively.
The like results for `COC(=O)N[C@H](C(=O)N1CCC[C@H]1C(=O)Nc1ccc(-c2ccc(-c3ccc(-c4cnc([C@@H]5CCCN5C(=O)[C@@H](NC(=O)OC)C(C)C)[nH]4)cc3)c3c2C2CCC3C2)cc1)C(C)C` (stereo partly drawn) [Example 49] were, in that order, 0.083 nM and 0.855 nM.
For `COC(=O)N[C@H](C(=O)N1C[C@H](C)C[C@H]1c1ncc(-c2ccc(-c3ccc(-c4cnc([C@@H]5C[C@@H](C)CN5C(=O)[C@@H](NC(=O)OC)C(C)C)[nH]4)c4c3C3CCC4CC3)cc2)[nH]1)C(C)C` [Example 59], in that order: 0.008 nM and 0.037 nM.
The like results for `COC(=O)N[C@H](C(=O)N1CCCC1c1ncc(-c2ccc(-c3ccc(-c4cnc([C@@H]5CC6(CN5C(=O)[C@@H](NC(=O)OC)C(C)C)OCCO6)[nH]4)cc3)c3c2C2CCC3CC2)[nH]1)C(C)C` (stereo partly drawn) [Example 61] were, in that order, 0.011 nM and 0.088 nM.
As for `COC(=O)N[C@H](C(=O)N1CCC[C@H]1c1ncc(-c2ccc(-c3ccc(-c4ccc(-c5cnc([C@@H]6CCCN6C(=O)[C@@H](NC(=O)OC)C(C)C)[nH]5)cc4)c4c3C3CCC4O3)cc2)[nH]1)C(C)C` [Example 63], the EC50 is 0.815 nM in the experiment on HCV GT1b replicon cells and 2.25 nM in the experiment on HCV GT1a replicon cells.
For `COC(=O)N[C@H](C(=O)N1CCCC1c1nc2ccc(-c3ccc(-c4ccc5nc([C@@H]6CCCN6C(=O)[C@@H](NC(=O)OC)C(C)C)[nH]c5c4)c4c3C3CCC4O3)cc2[nH]1)C(C)C` (stereo partly drawn) [Example 65], in that order: 0.013 nM and 0.064 nM.
For `COC(=O)N[C@H](C(=O)N1CCC[C@H]1c1ncc(-c2ccc(-c3ccc(-c4cnc([C@@H]5CCCN5C(=O)[C@@H](NC(=O)OC)C(C)C)[nH]4)c4c3C3CCC4C3)c3c2CCC3)[nH]1)C(C)C` (stereo partly drawn) [Example 67], in that order: 0.053 nM and 0.953 nM.
As for `[2H]C([2H])([2H])C([2H])(C([2H])([2H])[2H])[C@]([2H])(NC(=O)OC)C(=O)N1CCC[C@H]1c1ncc(-c2ccc(-c3ccc(-c4cnc([C@@H]5CC6CC6N5C(=O)[C@@]([2H])(NC(=O)OC)C([2H])(C([2H])([2H])[2H])C([2H])([2H])[2H])[nH]4)cc3)c3c2C2CCC3C2)[nH]1` (stereo partly drawn) [Example 76], the EC50 turned out to be 0.013 nM in the experiment on HCV GT1b replicon cells and 0.127 nM with HCV GT1a replicon cells.
As for `[2H]C([2H])([2H])C([2H])(C([2H])([2H])[2H])[C@]([2H])(NC(=O)OC)C(=O)N1CCC[C@H]1c1ncc(-c2ccc(-c3ccc(-c4cnc([C@@H]5CCCN5C(=O)[C@@]([2H])(NC(=O)OC)C([2H])(C([2H])([2H])[2H])C([2H])([2H])[2H])[nH]4)c4c3C3CCC4C3)c(F)c2)[nH]1` (stereo partly drawn) [Example 77], the EC50 with HCV GT1b replicon cells worked out at 0.009 nM; in the experiment on HCV GT1a replicon cells, 0.206 nM.
The like results for `[2H]C([2H])([2H])C([2H])(C([2H])([2H])[2H])[C@]([2H])(NC(=O)OC)C(=O)N1CCC[C@H]1c1ncc(-c2ccc(-c3nnc(-c4ccc5[nH]c([C@@H]6CCCN6C(=O)[C@@]([2H])(NC(=O)OC)C([2H])(C([2H])([2H])[2H])C([2H])([2H])[2H])nc5c4)c4c3C3CCC4CC3)cc2)[nH]1` [Example 78] were, in that order, 0.007 nM and 0.045 nM.
The like results for `[2H]C([2H])([2H])[C@]([2H])(NC(=O)OC)C(=O)N1C[C@@H](F)C[C@H]1c1ncc(-c2ccc(-c3ccc(-c4cnc([C@@H]5C[C@H](F)CN5C(=O)[C@@]([2H])(NC(=O)OC)C([2H])([2H])[2H])[nH]4)c4c3C3CCC4C3)cc2)[nH]1` (stereo partly drawn) [Example 79] were, in that order, 0.043 nM and 0.314 nM.
